The target in experiment [1] is Bcl-2 protein (histag-Bcl-2, UniProtKB P10415) (Homo sapiens (Human), UniProt P10415). Nature of the experiment: Inhibition of Bcl-2 by the fluorescence polarisation technique. The experiment is classed as binding. To be noted: incubation for 2 hours. The gist of the method: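 In pH 7.4 buffer (Hepes 10 mM, NaCl 150 mM, Tween20 0.05%), test compounds at increasing concentrations competed with a fluorescein peptide (1.00×10^−8 M final) for histag-Bcl-2 (2.50×10^−8 M final). Readout was fluorescence polarisation after a 2 h incubation.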

The subject of experiment [2] is RS4;11 leukaemia tumour line. As to the kind of experiment: In vitro cytotoxicity (Microculture Tetrazolium Assay). It is filed as cell-based. To be noted: RS4;11 cells, exposed for 48 hours, cell viability, read-out: IC50 (nM) MTT RS4;11. The method, then:
The cytotoxicity studies were carried out on the RS4;11 leukaemia tumour line.
The cells are distributed onto microplates and exposed to the test compounds for 48 hours.
The cell viability is then quantified by a colorimetric assay, the Microculture Tetrazolium Assay (Cancer Res., 1987, 47, 939-942).

Where a name gives a salt, the structure may show the parent alone. Read-outs that look alike come from different tables or passages of the source.

Bcl-2 protein, sequence (P10415 whole entry): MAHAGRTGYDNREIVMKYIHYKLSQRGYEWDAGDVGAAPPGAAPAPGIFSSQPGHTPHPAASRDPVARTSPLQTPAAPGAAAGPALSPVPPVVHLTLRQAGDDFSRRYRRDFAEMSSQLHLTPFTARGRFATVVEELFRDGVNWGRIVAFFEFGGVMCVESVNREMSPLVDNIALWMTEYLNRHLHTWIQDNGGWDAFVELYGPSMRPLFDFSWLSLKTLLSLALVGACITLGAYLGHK

Usually IC50 stands for the point on the concentration scale where inhibition reaches its midpoint. Regarding `Cc1c(C(=O)N(c2ccc(O)cc2)c2cnc3c(ccn3C)c2)cc(-c2cc3c(cc2C(=O)N2Cc4ccccc4C[C@H]2CN2CCOCC2)OCO3)n1C` [Example 44, N-(4-Hydroxyphenyl)-1,2-dimethyl-N-(1-methyl-1H-pyrrolo[2,3-b]-pyridin-5-yl)-5-(6-{[(3S)-3-(morpholin-4-ylmethyl)-3,4-dihydroisoquinolin-2(1H)-yl]carbonyl}-1,3-benzodioxol-5-yl)-1H-pyrrole-3-carboxamide hydrochloride], the IC50 in experiment [1] (read-out: IC50 (nM) Bcl-2 FP) was 3 nM; in experiment [2] (Homo sapiens, RS4-11, 48 h), 5.41 nM.
Turning to `Cc1c(C(=O)N(C)c2ccc(O)cc2)cc(-c2cc(CCNC(=O)Oc3ccccc3)ccc2C(=O)N2Cc3ccccc3C[C@H]2C)n1C` [Example 45, Phenyl[2-(3-{4-[(4-hydroxyphenyl)(methyl)carbamoyl]-1,5-dimethyl-1H-pyrrol-2-yl}-4-{[(3R)-3-methyl-3,4-dihydroisoquinolin-2(1H)-yl]carbonyl}-phenyl)ethyl]carbamate], the IC50 was 38.9 nM in experiment [1] (IC50 (nM) Bcl-2 FP) and 403 nM in experiment [2] (Homo sapiens).
Take `Cc1c(C(=O)N(C)c2ccc(O)cc2)cc(-c2cc(CCNC(=O)COc3ccccc3)ccc2C(=O)N2Cc3ccccc3C[C@H]2C)n1C` [Example 46, N-(4-Hydroxyphenyl)-N,1,2-trimethyl-5-(2-{[(3R)-3-methyl-3,4-dihydroisoquinolin-2(1H)-yl]carbonyl}-5-{2-[(phenoxyacetyl)amino]ethyl}phenyl)-1H-pyrrole-3-carboxamide]: the IC50 is 76.6 nM in experiment [1] (read-out: IC50 (nM) Bcl-2 FP) and > 600 nM in experiment [2] (Homo sapiens, RS4-11, 48 h).
In the case of `COc1ncc(N(C(=O)c2cc(-c3cc4c(cc3C(=O)N3Cc5ccccc5C[C@H]3C)OCO4)n(C)c2C)c2ccc(O)cc2)cn1` [Example 48, N-(4-Hydroxyphenyl)-N-(2-methoxypyrimidin-5-yl)-1,2-dimethyl-5-(6-{[(3R)-3-methyl-3,4-dihydroisoquinolin-2(1H)-yl]carbonyl}-1,3-benzodioxol-5-yl)-1H-pyrrole-3-carboxamide], the IC50 in experiment [1] (read-out: IC50 (nM) Bcl-2 FP) came out at 4.4 nM; in experiment [2] (Homo sapiens, RS4-11, 48 h), 14.9 nM.
`Cc1c(C(=O)N(c2ccc(O)cc2)c2cnc3c(c2)CCN3C)cc(-c2cc3c(cc2C(=O)N2Cc4ccccc4C[C@H]2CN2CCOCC2)OCO3)n1C` [Example 49, N-(4-Hydroxyphenyl)-1,2-dimethyl-N-(1-methyl-2,3-dihydro-1H-pyrrolo[2,3-b]pyridin-5-yl)-5-(6-{[(3S)-3-(morpholin-4-ylmethyl)-3,4-dihydroisoquinolin-2(1H)-yl]carbonyl}-1,3-benzodioxol-5-yl)-1H-pyrrole-3-carboxamide dihyrochloride]: the IC50 amounted to 4 nM in experiment [1] (read-out: IC50 (nM) Bcl-2 FP) and 14.1 nM in experiment [2].
Take `COc1ncc(N(C(=O)c2cc(-c3cc4c(cc3C(=O)N3Cc5ccccc5C[C@H]3CN3CCOCC3)OCO4)n(C)c2C)c2ccc(O)cc2)cn1` [Example 50, N-(4-Hydroxyphenyl)-N-(2-methoxypyrimidin-5-yl)-1,2-dimethyl-5-(6-{[(3S)-3-(morpholin-4-ylmethyl)-3,4-dihydroisoquinolin-2(1H)-yl]carbonyl}-1,3-benzodioxol-5-yl)-1H-pyrrole-3-carboxamide hydrochloride]: the IC50 in experiment [1] (read-out: IC50 (nM) Bcl-2 FP) was 5.9 nM; in experiment [2] (Homo sapiens, RS4-11, 48 h) it was 33.1 nM.
Taken in the same sequence, the figures for `Cc1c(C(=O)N(C)c2ccc(O)cc2)cc(-c2cc(CNC(=O)NCc3ccccc3)ccc2C(=O)N2Cc3ccccc3C[C@H]2C)n1C` [Example 51, 5-(5-{[(Benzylcarbamoyl)amino]methyl}-2-{[(3R)-3-methyl-3,4-dihydroisoquinolin-2(1H)-yl]carbonyl}phenyl)-N-(4-hydroxyphenyl)-N,1,2-trimethyl-1H-pyrrole-3-carboxamide] were 26.7 nM and 354 nM.
Taken in the same sequence, the figures for `CCNC(=O)NCc1ccc(C(=O)N2Cc3ccccc3C[C@H]2C)c(-c2cc(C(=O)N(C)c3ccc(O)cc3)c(C)n2C)c1` [Example 52, 5-(5-{[(Ethylcarbamoyl)amino]methyl}-2-{[(3R)-3-methyl-3,4-dihydroisoquinolin-2(1H)-yl]carbonyl}phenyl)-N-(4-hydroxyphenyl)-N,1,2-trimethyl-1H-pyrrole-3-carboxamide] were 28.9 nM and 433 nM.
With `Cc1c(C(=O)N(C)c2ccc(O)cc2)cc(-c2cc(CNC(=O)COc3ccccc3)ccc2C(=O)N2Cc3ccccc3C[C@H]2C)n1C` [Example 53, N-(4-Hydroxyphenyl)-N,1,2-trimethyl-5-(2-{[(3R)-3-methyl-3,4-dihydroisoquinolin-2(1H)-yl]carbonyl}-5-{[(phenoxyacetyl)amino]methyl}phenyl)-1H-pyrrole-3-carboxamide], the IC50 stood at 43.5 nM in experiment [1] (read-out: IC50 (nM) Bcl-2 FP) and 293 nM in experiment [2] (Homo sapiens, RS4-11, 48 h).
Taken in the same sequence, the figures for `Cc1c(C(=O)N(c2ccc(O)cc2)c2cnc3c(ccn3C)c2)cc(-c2cc(CNC(=O)COc3ccccc3)ccc2C(=O)N2Cc3ccccc3C[C@H]2C)n1C` [Example 54, N-(4-Hydroxyphenyl)-1,2-dimethyl-5-(2-{[(3R)-3-methyl-3,4-dihydroisoquinolin-2(1H)-yl]carbonyl}-5-{[(phenoxyacetyl)amino]methyl}phenyl)-N-(1-methyl-1H-pyrrolo[2,3-b]pyridin-5-yl)-1H-pyrrole-3-carboxamide] were 18 nM and 30.5 nM.
The matching figures for `Cc1c(C(=O)N(C)c2ccc(O)cc2)cc(-c2cc(CCNS(=O)(=O)CCc3ccc(F)cc3)ccc2C(=O)N2Cc3ccccc3C[C@H]2C)n1C` [Example 55, 5-(5-[2-({[2-(4-Fluorophenyl)ethyl]sulphonyl}amino)ethyl]-2-{[(3R)-3-methyl-3,4-dihydroisoquinolin-2(1H)-yl]carbonyl}phenyl)-N-(4-hydroxyphenyl)-N,1,2-trimethyl-1H-pyrrole-3-carboxamide]: 210 nM and > 600 nM.
Consider `Cc1c(C(=O)N(C)c2ccc(O)cc2)cc(-c2cc(CCNC(=O)NCc3ccccc3)ccc2C(=O)N2Cc3ccccc3C[C@H]2C)n1C` [Example 56, 5-(5-{2-[(Benzylcarbamoyl)amino]ethyl}-2-{[(3R)-3-methyl-3,4-dihydroisoquinolin-2(1H)-yl]carbonyl}phenyl)-N-(4-hydroxyphenyl)-N,1,2-trimethyl-1H-pyrrole-3-carboxamide], for which the IC50 is 75 nM in experiment [1] (read-out: IC50 (nM) Bcl-2 FP) and > 600 nM in experiment [2] (Homo sapiens, RS4-11, 48 h).
Taken in the same sequence, the figures for `Cc1c(C(=O)N(C)c2ccc(O)cc2)cc(-c2cc(CCNC(=O)Cc3ccccc3)ccc2C(=O)N2Cc3ccccc3C[C@H]2C)n1C` [Example 57, N-(4-Hydroxyphenyl)-N,1,2-trimethyl-5-(2-{[(3R)-3-methyl-3,4-dihydroisoquinolin-2(1H)-yl]carbonyl}-5-{2-[(phenylacetyl)amino]ethyl}phenyl)-1H-pyrrole-3-carboxamide] were 80 nM and > 600 nM.
As for `Cc1c(C(=O)N(C)c2ccc(O)cc2)cc(-c2cc(CCNC(=O)Nc3ccccc3)ccc2C(=O)N2Cc3ccccc3C[C@H]2C)n1C` [Example 58, N-(4-Hydroxyphenyl)-N,1,2-trimethyl-5-(2-{[(3R)-3-methyl-3,4-dihydroisoquinolin-2(1H)-yl]carbonyl}-5-{2-[(phenylcarbamoyl)amino]ethyl}phenyl)-1H-pyrrole-3-carboxamide], the IC50 in experiment [1] (read-out: IC50 (nM) Bcl-2 FP) was 133 nM; in experiment [2] (Homo sapiens, RS4-11, 48 h), > 600 nM.

(Values after patent US9108983B2, “Pyrrole compounds, a process for their preparation and pharmaceutical compositions containing them” (LES LABORATOIRES SERVIER, priority 2013, dated 2015).)
